From ChEMBL document CHEMBL4411303, “Synthesis of tetrazole derivatives bearing pyrrolidine scaffold and evaluation of their antifungal activity against Candida albicans” (Eur J Med Chem, 2019) come the findings set out here.

Molecules are shown by their SMILES.

Holding throughout (format): functional
Test [1] relates to Candida albicans. The test is described as follows: Antifungal activity against Candida albicans ATCC 90028 assessed as planktonic growth inhibition at 2.72 uM after 48 hrs by M27-A3 protocol based method relative to control. As to conditions: ATCC 90028, 48 h, read-out: GI.
Test [2] relates to Candida albicans. The test is described as follows: Antifungal activity against Candida albicans ATCC 90028 assessed as planktonic growth inhibition at 0.68 uM after 48 hrs by M27-A3 protocol based method relative to control. The conditions noted are these: ATCC 90028, 48 h, read-out: GI.
In test [3] the test system is Candida albicans. The test is described as follows: Antifungal activity against Candida albicans ATCC 90028 assessed as planktonic growth inhibition at 0.34 uM after 48 hrs by M27-A3 protocol based method relative to control. The conditions noted are these: ATCC 90028, 48 h, read-out: GI.
Test [4] has as its system Candida albicans. The experiment in a line: Antifungal activity against Candida albicans ATCC 90028 assessed as planktonic growth inhibition at 1.36 uM after 48 hrs by M27-A3 protocol based method relative to control. The conditions noted are these: ATCC 90028, 48 h, read-out: GI.
In test [5] the test system is Candida albicans. The experiment in a line: Antifungal activity against Candida albicans ATCC 90028 assessed as planktonic growth inhibition at 0.17 uM after 48 hrs by M27-A3 protocol based method relative to control. The conditions noted are these: ATCC 90028, 48 h, read-out: GI.
Test [6] has as its system Candida albicans. The experiment in a line: Fungicidal activity against Candida albicans ATCC 90028 assessed as log reduction in fungal load incubated for 48 hrs followed by replating on sabouraud dextrose agar plate and measured after 48 hrs.
The subject of test [7] is Candida albicans. The experiment in a line: Antifungal activity against Candida albicans ATCC 90028 assessed as planktonic growth inhibition at 5.44 uM after 48 hrs by M27-A3 protocol based method relative to control. The conditions noted are these: ATCC 90028, 48 h, read-out: GI.
For test [8], the system named is Candida albicans. The test is described as follows: Antifungal activity against Candida albicans ATCC 90028 assessed as planktonic growth inhibition at 21.75 uM after 48 hrs by M27-A3 protocol based method relative to control. As to conditions: ATCC 90028, 48 h, read-out: GI.
Test [9] concerns Candida albicans. The experiment in a line: Antifungal activity against Candida albicans ATCC 90028 assessed as planktonic growth inhibition at 10.87 uM after 48 hrs by M27-A3 protocol based method relative to control. The conditions noted are these: ATCC 90028, 48 h, read-out: GI.
Test [10] relates to Candida albicans. The test is described as follows: Antifungal activity against Candida albicans ATCC 90028 assessed as planktonic growth inhibition at 43.49 uM after 48 hrs by M27-A3 protocol based method relative to control. The conditions noted are these: ATCC 90028, 48 h, read-out: GI.
The test system of test [11] is Candida albicans. The experiment in a line: Antifungal activity against Candida albicans ATCC 90028 assessed as planktonic growth inhibition at 0.08 uM after 48 hrs by M27-A3 protocol based method relative to control. The conditions noted are these: ATCC 90028, 48 h, read-out: GI.
For test [12], the system named is Candida albicans. The test is described as follows: Antifungal activity against Candida albicans ATCC 90028 assessed as planktonic growth inhibition at 0.65 uM after 48 hrs by M27-A3 protocol based method relative to control. As to conditions: ATCC 90028, 48 h, read-out: GI.
Test [13] relates to Candida albicans. The test is described as follows: Antifungal activity against Candida albicans ATCC 90028 assessed as planktonic growth inhibition at 41.9 uM after 48 hrs by M27-A3 protocol based method relative to control. As to conditions: ATCC 90028, 48 h, read-out: GI.
Test [14] concerns Candida albicans. The test is described as follows: Antifungal activity against Candida albicans ATCC 90028 assessed as planktonic growth inhibition at 10.47 uM after 48 hrs by M27-A3 protocol based method relative to control. The conditions noted are these: ATCC 90028, 48 h, read-out: GI.
Test [15] relates to Candida albicans. The test is described as follows: Antifungal activity against Candida albicans ATCC 90028 assessed as planktonic growth inhibition at 5.24 uM after 48 hrs by M27-A3 protocol based method relative to control. The conditions noted are these: ATCC 90028, 48 h, read-out: GI.
Test [16] relates to Candida albicans. The test is described as follows: Antifungal activity against Candida albicans ATCC 90028 assessed as planktonic growth inhibition at 2.62 uM after 48 hrs by M27-A3 protocol based method relative to control. The conditions noted are these: ATCC 90028, 48 h, read-out: GI.
The subject of test [17] is Candida albicans. The test is described as follows: Antifungal activity against Candida albicans ATCC 90028 assessed as planktonic growth inhibition at 20.95 uM after 48 hrs by M27-A3 protocol based method relative to control. As to conditions: ATCC 90028, 48 h, read-out: GI.
Test [18] deals with Candida albicans. The experiment in a line: Antifungal activity against Candida albicans ATCC 90028 assessed as planktonic growth inhibition at 1.31 uM after 48 hrs by M27-A3 protocol based method relative to control. As to conditions: ATCC 90028, 48 h, read-out: GI.
Test [19] relates to Candida albicans. The test is described as follows: Antifungal activity against Candida albicans ATCC 90028 assessed as planktonic growth inhibition at 0.16 uM after 48 hrs by M27-A3 protocol based method relative to control. As to conditions: ATCC 90028, 48 h, read-out: GI.
For test [20], the system named is Candida albicans. The test is described as follows: Antifungal activity against Candida albicans ATCC 90028 assessed as planktonic growth inhibition at 0.33 uM after 48 hrs by M27-A3 protocol based method relative to control. The conditions noted are these: ATCC 90028, 48 h, read-out: GI.
The test system of test [21] is Candida albicans. The test is described as follows: Antifungal activity against Candida albicans ATCC 90028 assessed as planktonic growth inhibition at 0.36 uM after 48 hrs by M27-A3 protocol based method relative to control. As to conditions: ATCC 90028, 48 h, read-out: GI.
For test [22], the system named is Candida albicans. The test is described as follows: Antifungal activity against Candida albicans ATCC 90028 assessed as planktonic growth inhibition at 5.76 uM after 48 hrs by M27-A3 protocol based method relative to control. As to conditions: ATCC 90028, 48 h, read-out: GI.
The test system of test [23] is Candida albicans. The experiment in a line: Antifungal activity against Candida albicans ATCC 90028 assessed as planktonic growth inhibition at 46.05 uM after 48 hrs by M27-A3 protocol based method relative to control. As to conditions: ATCC 90028, 48 h, read-out: GI.
The subject of test [24] is Candida albicans. The experiment in a line: Antifungal activity against Candida albicans ATCC 90028 assessed as planktonic growth inhibition at 1.44 uM after 48 hrs by M27-A3 protocol based method relative to control. The conditions noted are these: ATCC 90028, 48 h, read-out: GI.
The subject of test [25] is Candida albicans. The experiment in a line: Antifungal activity against Candida albicans ATCC 90028 assessed as planktonic growth inhibition at 0.18 uM after 48 hrs by M27-A3 protocol based method relative to control. As to conditions: ATCC 90028, 48 h, read-out: GI.
Test [26] relates to Candida albicans. The test is described as follows: Antifungal activity against Candida albicans ATCC 90028 assessed as planktonic growth inhibition at 2.88 uM after 48 hrs by M27-A3 protocol based method relative to control. The conditions noted are these: ATCC 90028, 48 h, read-out: GI.
Test [27] relates to Candida albicans. The experiment in a line: Antifungal activity against Candida albicans ATCC 90028 assessed as planktonic growth inhibition at 23.02 uM after 48 hrs by M27-A3 protocol based method relative to control. The conditions noted are these: ATCC 90028, 48 h, read-out: GI.
Test [28] relates to Candida albicans. The test is described as follows: Antifungal activity against Candida albicans ATCC 90028 assessed as planktonic growth inhibition at 0.72 uM after 48 hrs by M27-A3 protocol based method relative to control. As to conditions: ATCC 90028, 48 h, read-out: GI.
Test [29] relates to Candida albicans. The experiment in a line: Antifungal activity against Candida albicans ATCC 90028 assessed as planktonic growth inhibition at 11.51 uM after 48 hrs by M27-A3 protocol based method relative to control. The conditions noted are these: ATCC 90028, 48 h, read-out: GI.
The subject of test [30] is Candida albicans. The test is described as follows: Antifungal activity against Candida albicans ATCC 90028 assessed as planktonic growth inhibition at 0.09 uM after 48 hrs by M27-A3 protocol based method relative to control. The conditions noted are these: ATCC 90028, 48 h, read-out: GI.

For `Clc1ccccc1-c1nnn(CCCN2CCCC2c2ccccc2)n1` (stereo not given), in test [1], the inhibition of growth at 2.72 µM worked out at 99.1%. Besides, the inhibition of growth at 0.68 µM in test [2] was 99%. For the same compound, in test [3], the inhibition of growth at 0.34 µM came out at 99%. For the same compound, the inhibition of growth at 1.36 µM in test [4] amounted to 99.1%. The inhibition of growth at 0.17 µM in test [5] is 98.9%. For the same compound, the “log(activity)” value in test [6] is on record as -0.3. Also, the inhibition of growth at 5.44 µM in test [7] came out at 99.1%. For the same compound, the inhibition of growth at 21.75 µM in [8] was found to be 99.4%. Further, the inhibition of growth at 10.87 µM in [9] turned out to be 99.2%. Also, the inhibition of growth at 43.49 µM in test [10] was determined as 99.5%. Also, the inhibition of growth at 0.08 µM in test [11] was 98.8%.
In the case of `Clc1ccc(C2CCCN2CCCn2nnc(-c3ccccc3)n2)cc1` (stereo not given), the inhibition of growth at 2.72 µM in [1] came to 99.2%. Besides, in [2], the inhibition of growth at 0.68 µM stood at 99.4%. Also, the inhibition of growth at 0.34 µM in [3] was 99.4%. Besides, the inhibition of growth at 1.36 µM in test [4] was 99.4%. The inhibition of growth at 0.17 µM in test [5] was 99.3%. In addition, the “log(activity)” value in [6] is -1.4. For the same compound, in [7], the inhibition of growth at 5.44 µM worked out at 99.3%. For the same compound, the inhibition of growth at 21.75 µM in test [8] is 99.4%. Also, the inhibition of growth at 10.87 µM in test [9] stood at 99.2%. Moreover, in test [10], the inhibition of growth at 43.49 µM stood at 99.6%. Besides, the inhibition of growth at 0.08 µM in [11] was 99.4%.
`Cc1cccc(C2CCCN2CCCn2nnc(-c3ccc(Cl)cc3)n2)c1` (stereo not given): the inhibition of growth at 0.65 µM in test [12] worked out at 99.3%. In addition, in [13], the inhibition of growth at 41.9 µM amounted to 98.9%. Also, in [14], the inhibition of growth at 10.47 µM worked out at 98.9%. In [15], the inhibition of growth at 5.24 µM stood at 99.3%. In addition, the “log(activity)” value in [6] is reported as -0.4. Further, the inhibition of growth at 2.62 µM in test [16] was determined as 99.3%. In addition, in test [17], the inhibition of growth at 20.95 µM was determined as 98.8%. In addition, the inhibition of growth at 1.31 µM in [18] came to 99.3%. In addition, the inhibition of growth at 0.16 µM in test [19] was found to be 99.3%. Moreover, the inhibition of growth at 0.33 µM in [20] was determined as 99.3%. Also, the inhibition of growth at 0.08 µM in test [11] came to 99.3%.
Regarding `Cc1ccc(-c2nnn(CCCN3CCCC3c3ccccc3)n2)cc1` (stereo not given), the inhibition of growth at 0.36 µM in [21] was 98.8%. The inhibition of growth at 5.76 µM in test [22] worked out at 94.4%. Moreover, the inhibition of growth at 46.05 µM in test [23] came out at 98.5%. Besides, the inhibition of growth at 1.44 µM in test [24] was determined as 97.8%. The “log(activity)” value in [6] is on record as -1. The inhibition of growth at 0.18 µM in [25] came to 99.8%. Further, the inhibition of growth at 2.88 µM in test [26] was found to be 95.1%. The inhibition of growth at 23.02 µM in test [27] came to 99.4%. For the same compound, in test [28], the inhibition of growth at 0.72 µM was 98.8%. Moreover, the inhibition of growth at 11.51 µM in test [29] amounted to 93.4%. The inhibition of growth at 0.09 µM in test [30] was determined as 99%.
Turning to `Clc1ccc(-c2nnn(CCCN3CCCC3c3ccccc3)n2)cc1` (stereo not given), the inhibition of growth at 2.72 µM in test [1] came out at 99.4%. Moreover, in test [2], the inhibition of growth at 0.68 µM worked out at 99.3%. For the same compound, the inhibition of growth at 0.34 µM in [3] is 99.3%. Also, the inhibition of growth at 1.36 µM in test [4] came out at 99.4%. In addition, in test [5], the inhibition of growth at 0.17 µM was found to be 99.3%. The “log(activity)” value in test [6] is recorded as -0.5. In addition, the inhibition of growth at 5.44 µM in test [7] came to 99.3%. In addition, the inhibition of growth at 21.75 µM in [8] is 99.2%. Besides, the inhibition of growth at 10.87 µM in test [9] came out at 99.2%. In addition, in test [10], the inhibition of growth at 43.49 µM amounted to 99.1%. Also, the inhibition of growth at 0.08 µM in test [11] was 99.3%.
